Laboratory results reported in patent US9981909B2 (Janssen Pharmaceutica NV, priority 2008, dated 2018).
Structures can show the parent of a compound that is named as a salt.

Target: rat 5-HT7 receptor (Rattus norvegicus (Rat), UniProt P32305)
Assay: r5-HT7 binding assay, competitive radioligand binding with [3H]5-CT
Protocol: Receptor binding was performed using membrane fractions prepared from the HEK-293 cell line recombinantly expressing rat 5-HT7 receptors (NCBI accession NM_022938). Compound affinity for the rat 5-HT7 receptor subtype was evaluated by competitive radioligand binding assays using 5-carboxamido[^3H]tryptamine ([^3H]5-CT) (Amersham Biosciences, cat. 90000403) detection. HitHunter™ cAMP assays are in-vitro based competitive immunoassays. The assay was performed on the HEK-293 cell line stably transfected with r5-HT7 receptor. Cells were pre-incubated with test compounds for 10 minutes. For antagonist testing, the cells were then challenged with 100 nM 5-CT for 20 minutes. Cells were then lysed and cAMP measured according to manufacturers protocol (Amersham, cat. NET791250UC) or [^3H]mesulergine (Amersham, cat. TRK1041). The assay was performed on membranes prepared from HEK-293 cells stably transfected with h5-HT6. Following centrifugation, membranes were resuspended and incubated for 60 min at room temperature with 1.7 nM [^3H]LSD in the presence of increasing concentration of test compounds. Nonspecific binding was defined in the presence of 10 μM clozapine (Tocris, cat. TRK1068). Homogenized HEK-293 membranes expressing the human SERT were incubated in 50 mM Tris-HCl (pH 7.5), 120 mM NaCl, 5 mM KCl with [^3H]-citalopram (3 nM) with or without test compounds. Nonspecific binding was determined in the presence of 10 μM fluoxetine. Radioactivity readouts and Ki values were performed as previously described for r5-HT7. […] Compounds were assayed in their free form or as salts, as indicated in the Examples section above.

[1] = rat 5-HT7 receptor, HEK-293 membranes

rat 5-HT7 receptor, sequence (P32305 1-435): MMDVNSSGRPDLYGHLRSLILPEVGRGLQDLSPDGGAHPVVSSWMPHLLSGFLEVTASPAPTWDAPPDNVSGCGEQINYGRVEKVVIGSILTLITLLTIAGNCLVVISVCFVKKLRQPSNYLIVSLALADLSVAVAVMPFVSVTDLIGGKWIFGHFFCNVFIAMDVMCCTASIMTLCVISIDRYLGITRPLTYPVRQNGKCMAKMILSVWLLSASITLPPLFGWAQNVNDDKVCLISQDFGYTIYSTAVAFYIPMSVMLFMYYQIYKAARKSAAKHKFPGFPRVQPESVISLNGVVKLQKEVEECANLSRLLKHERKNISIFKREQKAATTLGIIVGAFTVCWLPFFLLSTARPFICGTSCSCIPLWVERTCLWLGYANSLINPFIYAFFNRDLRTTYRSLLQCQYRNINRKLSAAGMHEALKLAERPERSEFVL

| Structure (SMILES) | Ki (rat 5-HT7, HEK-293 membranes) [nM] | Ki [1] [nM] |
| --- | --- | --- |
| Clc1ccc(Oc2ccc3cccnc3n2)c(OC2CNC2)c1 [Example 263, 2-[2-(Azetidin-3-yloxy)-4-chloro-phenoxy]-[1,8]naphthyridine] | 544 |  |
| CCC(Oc1ccc(Cl)cc1OC1CNC1)c1cccc(C(F)(F)F)c1 (racemic) [Example 140, (±)-3-[5-Chloro-2-[1-(3-trifluoromethyl-phenyl)-propoxy]-phenoxy]-azetidine] |  | 230 |
| O=C(COc1ccc(Cl)cc1OC1CNC1)c1ccc(Cl)cc1 [Example 183, 2-[2-(Azetidin-3-yloxy)-4-chloro-phenoxy]-1-(4-chloro-phenyl)-ethanone] |  | 110 |
| Brc1ccc(Oc2ccc(Br)cc2OC2CNC2)cc1 [Example 250, 3-[5-Bromo-2-(4-bromo-phenoxy)-phenoxy]-azetidine] | 17 |  |
| FC(F)(F)c1cccc(COc2ccc(Cl)cc2OC2CCCNC2)c1 (racemic) [Example 71, (±)-3-[5-Chloro-2-(3-trifluoromethyl-benzyloxy)-phenoxy]-piperidine] |  | 143 |
| CC(Oc1ccc(Cl)cc1OC1CNC1)c1ccccc1C(F)(F)F (racemic) [Example 122, (±)-3-[5-Chloro-2-[1-(2-trifluoromethyl-phenyl)-ethoxy]-phenoxy]-azetidine] |  | 210 |
| CCC1(Oc2cc(Br)ccc2OCc2cccc(Cl)c2)CNC1 [Example 213, 3-[5-Bromo-2-(3-chloro-benzyloxy)-phenoxy]-3-ethyl-azetidine] | 4590 |  |
| Fc1cc(C(F)(F)F)ccc1COc1ccc(Cl)cc1OC1CNC1 [Example 48, 3-[5-Chloro-2-(2-fluoro-4-trifluoromethyl-benzyloxy)-phenoxy]-azetidine] |  | 88 |
| CC(C)N1CC(Oc2ccc(Cl)cc2OC2CNC2)C1 [Example 224, 3-[5-Chloro-2-(1-Isopropyl-azetidin-3-ol)-phenoxy]-azetidine] | 68 |  |
| CC(Oc1ccc(Cl)cc1OC1CNC1)c1ccc(F)c(F)c1 (racemic) [Example 128, (±)-3-[5-Chloro-2-[1-(3,4-difluoro-phenyl)-ethoxy]-phenoxy]-azetidine trifluoroacetate] |  | 127 |
| CS(=O)(=O)c1cc(Cl)ccc1COc1ccc(Cl)cc1OC1CNC1 [Example 56, 3-[5-Chloro-2-(4-chloro-2-methanesulfonyl-benzyloxy)-phenoxy]-azetidine] |  | 9000 |
| CC(Oc1ccc(Cl)cc1OC1CNC1)c1ccc(Cl)c(Cl)c1 (racemic) [Example 126, (±)-3-[5-Chloro-2-[1-(3,4-dichloro-phenyl)-ethoxy]-phenoxy]-azetidine] |  | 38 |
| O=C(c1ccc2c(c1)OCO2)c1ccc(Cl)cc1OC1CNC1 [Example 295, [2-(Azetidin-3-yloxy)-4-chloro-phenyl]-benzo[1,3]dioxol-5-yl-methanone] | 226 |  |
| CC(Oc1cc(Br)ccc1OCc1cccc(Cl)c1)C1(O)CNC1 (centres unmarked) [Example 236, 3-[1-[5-Bromo-2-(3-chloro-benzyloxy)-phenoxy]-ethyl]-azetidin-3-ol] | 831 |  |
| CC(C)N1CC(Oc2ccc(Br)cc2OCc2cccc(Cl)c2)C1 [Example 24, 3-[4-Bromo-2-(3-chloro-benzyloxy)-phenoxy]-1-isopropyl-azetidine] |  | 190 |
| FC(F)(F)Oc1ccc(COc2ccc(Br)cc2OC2CNC2)cc1Cl [Example 11, 3-[5-Bromo-2-(3-chloro-4-trifluoromethoxy-benzyloxy)-phenoxy]-azetidine] |  | 53 |
| ON=C1c2ccccc2CC1Oc1ccc(Cl)cc1OC1CNC1 (centres unmarked) [Example 179, 2-[2-(Azetidin-3-yloxy)-4-chloro-phenoxy]-indan-1-one oxime] |  | 360 |
| C[C@@H](Oc1ccc(Cl)cc1OC1CCCNC1)c1cccc(C(F)(F)F)c1 (stereo partly drawn) [Example 139, (R,S)-3-[5-Chloro-2-[1-((R)-3-trifluoromethyl-phenyl)-ethoxy]-phenoxy]-piperidine] |  | 189 |
| Fc1cccc(COc2ccc(Br)cc2OC2CN(c3ccccc3)C2)c1 [Example 172, 3-[5-Bromo-2-(3-fluoro-benzyloxy)-phenoxy]-1-phenyl-azetidine] |  | 5000 |
| Fc1cc(Cl)cc(OC2CNC2)c1OCc1ccc(C(F)(F)F)o1 [Example 198, 3-[5-Chloro-3-fluoro-2-(5-trifluoromethyl-furan-2-ylmethoxy)-phenoxy]-azetidine] |  | 1460 |
| Clc1cccc(COc2ccc(Br)cc2COC2CNC2)c1 [Example 237, 3-[5-Bromo-2-(3-chloro-benzyloxy)-benzyloxy]-azetidine] | 120 |  |
| Clc1ccc(OCC2CCCO2)c(OC2CNC2)c1 (centres unmarked) [Example 166, 3-[5-Chloro-2-(tetrahydro-furan-2-ylmethoxy)-phenoxy]-azetidine] |  | 1270 |

| Structure (SMILES) | Ki (rat 5-HT7, HEK-293 membranes) [nM] | Ki [1] [nM] |
| --- | --- | --- |
| CCC(Oc1ccc(Cl)cc1OC1CNC1)c1ccccc1 (centres unmarked) [Example 147, 3-[5-Chloro-2-(1-phenyl-propoxy)-phenoxy]-azetidine] |  | 211 |
| CC1(Oc2cc(Br)ccc2OCc2cccc(C(F)(F)F)c2)CNC1 [Example 217] | 34 |  |
| Cc1nc(C(F)(F)F)ccc1COc1ccc(Cl)cc1OC1CNC1 [Example 80, 3-[2-(Azetidin-3-yloxy)-4-chloro-phenoxymethyl]-2-methyl-6-trifluoromethyl-pyridine] |  | > 10000 |
| OC1(COc2cc(Br)ccc2OCc2cccc(Cl)c2)CNC1 [Example 235, 3-[5-Bromo-2-(3-chloro-benzyloxy)-phenoxymethyl]-azetidin-3-ol] | 665 |  |
| CCCN1CC(Oc2cc(F)ccc2OCc2cccc(Cl)c2)C1 [Example 206, 3-[2-(3-Chloro-benzyloxy)-5-fluoro-phenoxy]-1-propyl-azetidine] |  | 21 |
| CC(C)N1CC(Oc2cc(Br)ccc2C(=O)c2ccc3c(c2)OCO3)C1 [Example 290, Benzo[1,3]dioxol-5-yl-[4-bromo-2-(1-isopropyl-azetidin-3-yloxy)-phenyl]-methanone] | 143 |  |
| O=C(O)C(Oc1ccc(Cl)cc1OC1CNC1)c1ccccc1 (centres unmarked) [Example 149, [2-(Azetidin-3-yloxy)-4-chloro-phenoxy]-phenyl-acetic acid hydrochloride] |  | > 10000 |
| CCc1noc(COc2ccc(Cl)cc2OC2CNC2)n1 [Example 243, 5-[2-(Azetidin-3-yloxy)-4-chloro-phenoxymethyl]-3-ethyl-[1,2,4]oxadiazole hydrochloride] | 461 |  |
| Cc1nc(C)c(C(C)Oc2ccc(Cl)cc2OC2CNC2)s1 (centres unmarked) [Example 134, 5-[1-[2-(Azetidin-3-yloxy)-4-chloro-phenoxy]-ethyl]-2,4-dimethyl-thiazole] |  | 3830 |
| Fc1ccc(COc2ccc(Cl)cc2OC2CNC2)c(F)c1 [Example 57, 3-[5-Chloro-2-(2,4-difluoro-benzyloxy)-phenoxy]-azetidine] |  | 42 |
| COc1cccc(Oc2ccc(Br)cc2OC2CNC2)c1 [Example 248, 3-[5-Bromo-2-(3-methoxy-phenoxy)-phenoxy]-azetidine] | 43 |  |
| Clc1ccc(OCc2cnco2)c(OC2CNC2)c1 [Example 87, 5-[2-(Azetidin-3-yloxy)-4-chloro-phenoxymethyl]-oxazole] |  | 240 |
| C[C@H](Oc1ccc(Cl)cc1OC1CN(C)C1)c1cccc(C(F)(F)F)c1 [Example 103, (S)-3-[5-Chloro-2-[1-(3-trifluoromethyl-phenyl)-ethoxy]-phenoxy]-1-methyl-azetidine] |  | 27 |
| CN1CCC(Oc2cc(Br)ccc2OCc2cccc(Cl)c2)C1 (racemic) [Example 95, (±)-3-[5-Bromo-2-(3-chloro-benzyloxy)-phenoxy]-1-methyl-pyrrolidine] |  | 9 |
| FC(F)(F)c1ccc(COc2ccc(Cl)cc2OC2CCCNC2)o1 (racemic) [Example 69, (±)-3-[5-Chloro-2-(5-trifluoromethyl-furan-2-ylmethoxy)-phenoxy]-piperidine] |  | 94 |
| CN1CC(Oc2cc(Br)ccc2OCc2ccccc2Cl)C1 [Example 16, 3-[5-Bromo-2-(2-chloro-benzyloxy)-phenoxy]-1-methyl-azetidine] |  | 100 |
| Cc1cccc(C(=O)c2ccc(Br)cc2OC2CNC2)c1 [Example 284, [2-(Azetidin-3-yloxy)-4-bromo-phenyl]-m-tolyl-methanone] | 19 |  |
| CC(Oc1ccc(Cl)cc1OC1CN(C2CCC2)C1)c1cccc(C(F)(F)F)c1 (racemic) [Example 107, (±)-3-[5-Chloro-2-[1-(3-trifluoromethyl-phenyl)-ethoxy]-phenoxy]-1-cyclobutyl-azetidine] |  | 90 |
| Clc1cccc(COc2ccc(Cl)cc2O[C@@H]2CCNC2)c1 [Example 58, (R)-3-[5-Chloro-2-(3-chloro-benzyloxy)-phenoxy]-pyrrolidine] |  | 120 |
| Cc1cc(COc2ccc(Cl)cc2OC2CNC2)n(C)n1 [Example 170, 5-[2-(Azetidin-3-yloxy)-4-chloro-phenoxymethyl]-1,3-dimethyl-1H-pyrazole] |  | 5000 |
| FCC(Oc1ccc(Cl)cc1OC1CNC1)c1ccccc1 (centres unmarked) [Example 143, 3-[5-Chloro-2-(2-fluoro-1-phenyl-ethoxy)-phenoxy]-azetidine] |  | 215 |
| Clc1ccc(OCc2ccccc2)c(OC2CCCNC2)c1 (racemic) [Example 70, (±)-3-(2-Benzyloxy-5-chloro-phenoxy)-piperidine] |  | 174 |
